Source: patent publication US8735322B2, “Herbicides” (Syngenta Limited, priority 2008, dated 2014)

How the values were obtained:
Type in all cases: in vivo
[1] = test system: Echinochloa crus-galli (ECHCG); test: Example A post-emergence herbicidal activity, glasshouse pot test; conditions: 360 h, rate 500 g/ha, evaluated 15 days after spraying, read-out: herbicidal damage ECHCG (100=total damage to plant; 0=no damage to plant)
Experimental: (§1) Seeds of a variety of test species were sown in standard soil in pots. After cultivation for one day (pre-emergence) or after 10 days cultivation (post-emergence) under controlled conditions in a glasshouse, the plants were sprayed with an aqueous spray solution derived from the formulation of the technical active ingredient in 0.6 ml acetone and 45 ml formulation solution containing 10.6% Emulsogen EL (Registry number 61791-12-6), 42.2% N-methylpyrrolidone, 42.2% dipropylene glycol monomethyl ether (Registry number 34590-94-8) and 0.2% X-77 (Registry number 11097-66-8). The test plants were then grown in a greenhouse under optimum conditions until, 15 days later for post-emergence and 20 days for pre-emergence, the test was evaluated (100=total damage to plant; 0=no damage to plant). Alopecurus myosuroides (ALOMY), Avena fatua (AVEFA), Lolium perenne (LOLPE), Setaria faberi (SETFA), Digitaria sanguinalis (DIGSA), Echinochloa crus-galli (ECHCG) Post Emergency Activity

Setaria faberi (SETFA) [2] = test: as above; conditions: 360 h, rate 500 g/ha, evaluated 15 days after spraying, read-out: herbicidal damage SETFA (100=total damage to plant; 0=no damage to plant)
Experimental: as §1

Lolium perenne (LOLPE) [3] = test: as above; conditions: 360 h, rate 500 g/ha, evaluated 15 days after spraying, read-out: herbicidal damage LOLPE (100=total damage to plant; 0=no damage to plant)
Experimental: as §1

[4] = test system: Digitaria sanguinalis (DIGSA); test: as above; conditions: 360 h, rate 500 g/ha, evaluated 15 days after spraying, read-out: herbicidal damage DIGSA (100=total damage to plant; 0=no damage to plant)
Experimental: as §1

[5] = test system: Alopecurus myosuroides (ALOMY); test: as above; conditions: 360 h, rate 500 g/ha, evaluated 15 days after spraying, read-out: herbicidal damage ALOMY (100=total damage to plant; 0=no damage to plant)
Experimental: as §1

Avena fatua (AVEFA) [6] = test: as above; conditions: 360 h, rate 500 g/ha, evaluated 15 days after spraying, read-out: herbicidal damage AVEFA (100=total damage to plant; 0=no damage to plant)
Experimental: as §1

[7] = test system: Echinochloa crus-galli (ECHCG); test: Example A pre-emergence herbicidal activity, glasshouse pot test; conditions: 480 h, rate 500 g/ha, evaluated 20 days later, 100=total damage to plant, 0=no damage to plant
Experimental: as §1, with “Pre-Emergence” for “Post Emergency”

Setaria faberi (SETFA) [8] = test: as above; conditions: 480 h, rate 500 g/ha, evaluated 20 days later, 100=total damage to plant, 0=no damage to plant
Experimental: as §1, with “Pre-Emergence” for “Post Emergency”

Lolium perenne (LOLPE) [9] = test: as above; conditions: 480 h, rate 500 g/ha, evaluated 20 days later, 100=total damage to plant, 0=no damage to plant
Experimental: as §1, with “Pre-Emergence” for “Post Emergency”

[10] = test system: Digitaria sanguinalis (DIGSA); test: as above; conditions: 480 h, rate 500 g/ha, evaluated 20 days later, 100=total damage to plant, 0=no damage to plant
Experimental: as §1, with “Pre-Emergence” for “Post Emergency”

[11] = test system: Alopecurus myosuroides (ALOMY); test: as above; conditions: 480 h, rate 500 g/ha, evaluated 20 days later, 100=total damage to plant, 0=no damage to plant
Experimental: as §1, with “Pre-Emergence” for “Post Emergency”

Avena fatua (AVEFA) [12] = test: as above; conditions: 480 h, rate 500 g/ha, evaluated 20 days later, 100=total damage to plant, 0=no damage to plant
Experimental: as §1, with “Pre-Emergence” for “Post Emergency”

Row | Structure (SMILES) | pest or weed control at 500 g/ha [1] [%] | pest or weed control at 500 g/ha (Setaria faberi (SETFA) [2]) [%] | pest or weed control at 500 g/ha (Lolium perenne (LOLPE) [3]) [%] | pest or weed control at 500 g/ha [4] [%] | pest or weed control at 500 g/ha [5] [%] | pest or weed control at 500 g/ha (Avena fatua (AVEFA) [6]) [%] | pest or weed control at 500 g/ha [7] [%] | pest or weed control at 500 g/ha (Setaria faberi (SETFA) [8]) [%] | pest or weed control at 500 g/ha (Lolium perenne (LOLPE) [9]) [%] | pest or weed control at 500 g/ha [10] [%] | pest or weed control at 500 g/ha [11] [%] | pest or weed control at 500 g/ha (Avena fatua (AVEFA) [12]) [%]
1 | Cc1ccc(-c2ccc(Cl)cc2)cc1C1=C(O)CC(CC2CCOC2)CC1=O (stereo not drawn) [Compound A-2] | 100 | 90 | 50 | 90 | 70 | 40 | 100 | 60 | 10 | 50 | 20 | 40
2 | CCc1cc(C)cc(CC)c1C1=C(O)CC(CC2CCOC2)CC1=O (stereo not drawn) [Compound A-3] | 100 | 80 | 80 | 100 | 80 | 80 | 100 | 100 | 100 | 100 | 80 | 90
3 | CCc1ccc(-c2ccc(Cl)cc2)cc1C1=C(O)CC(CC2CCOC2)CC1=O (stereo not drawn) [Compound A-4] | 100 | 100 | 70 | 100 | 80 | 70 | 100 | 80 | 30 | 70 | 60 | 40
4 | CCc1cc(C)cc(CC)c1C1=C(O)CC(CC2CCOCC2)CC1=O (stereo not drawn) [Compound A-5, 2-(2,6-diethyl-4-methylphenyl)-5-(tetrahydropyran-4-ylmethyl)cyclohexane-1,3-dione] | 100 | 100 | 90 | 90 | 90 | 90 | 100 | 100 | 100 | 100 | 100 | 100
5 | CCc1cc(C)cc(CC)c1C1=C(O)CC(CC2OCCO2)CC1=O (stereo not drawn) [Compound A-6, 2-(2,6-diethyl-4-methylphenyl)-5-([1,3]dioxolan-2-ylmethyl)cyclohexane-1,3-dione] | 100 | 80 | 80 | 90 | 80 | 100 | 100 | 80 | 70 | 100 | 90 | 60
6 | CCc1cc(C)cc(CC)c1C1=C(O)CC(CC2OCCCO2)CC1=O (stereo not drawn) [Compound A-7] | 100 | 80 | 90 | 80 | 90 | 100 | 100 | 80 | 100 | 100 | 100 | 100
7 | CCc1cc(C)cc(CC)c1C1=C(O)CC(CC2OCC(C)(C)CO2)CC1=O (stereo not drawn) [Compound A-8] | 100 | 70 | 80 | 70 | 60 | 50 | 70 | 70 | 100 | 100 | 100 | 50
